Experimental data as given in patent publication US10105326B2, “Pharmaceutical solution comprising dopamine for use in treating parkinson's disease” (CENTRE HOSPITALIER REGIONAL ET UNIVERSITAIRE DE LILLE (CHRU), priority 2014, dated 2018).

Tests used:
Type in all cases: in vivo
striatum of MPTP mice = assay: Neurotransmitter content in striatum of MPTP mice (HPLC)
Method: (§1) Five-month-old male C57B1/6J mice (Elevage Janvier, Le Genest St Isle, France) weighing 28-30 g were used. The mice received four intraperitoneal injections (with 2 h intervals) of saline solution containing 0 (“Saline mice”) or 20 mg/kg of MPTP (“MPTP mice”) (Sigma Aldrich, St Louis, Mo. USA). Saline or MPTP were administrated at day 0 (D0), the central continuous dopamine infusion or peripheral L-dopa treatment were delivered from 7th to the 14th day (D7 to D14), and then spontaneous locomotor measurement and sacrifice were performed at D14.

TH-ir neurons in SNpc = assay: TH-ir neurons counting in SNpc of MPTP mice
Method: as §1
The brains were removed and, after a post-fixation process, were cryoprotected and frozen. […]
The number of TH-ir neurons (“Tyrosine Hydroxylase-Immunoreactive») in the SNpc was assessed by counting TH-ir neurons of the left and right hemisphere in every 4th section of the SNpc of all experimental groups. […] For the unbiased quantification, a line was drawn around the SNpc of each section. […] Cells were counted with a 40× using a Nikon Eclipse E600 microscope (Tokyo, Japan). […] As no difference between left and right SNps was found, TH-ir counted neurons of both sides were pooled and for each animal, a sum of neurons counted in each section was calculated. […]

[1] = tested on: TH-ir terminals in dorsal striatum; assay: TH-ir optical density in dorsal striatum of MPTP mice; conditions: MPTP administration
MPTP mice = assay: Spontaneous motor activity (actimetry) in MPTP mice; conditions: for spontaneous locomotor activity: 7 days
Method: as §1
After 7 days of treatment (i.p. L-dopa or i.c.v dopamine), spontaneous motor activity was recorded in an actimeter (Panlab, Barcelona, Spain) during 10 minutes. The apparatus was a 45×45×35 cm transparent Plexiglas enclosure equipped with two frames of infrared beams. This apparatus allowed horizontal motor activity (distance traveled, speed, movement type) and rearing behavior to be measured based on infrared beams obstructions. Chosen parameters were collected by Actitrack software (Panlab, Barcelona, Spain).

[2] = peripheral L-dopa 50 and 100 mg/day

Row | abnormal behaviors (MPTP mice; high doses of L-Dopa) | Compound | reduction in DOPAC content in each striatum (striatum of MPTP mice; MPTP intoxication) | reduction in HIA content in each striatum (striatum of MPTP mice; MPTP intoxication) | reduction in HVA content in each striatum (striatum of MPTP mice; MPTP intoxication) | reduction in noradrenalin content in each striatum (striatum of MPTP mice; MPTP intoxication) | reduction in serotonin content in each striatum (striatum of MPTP mice; MPTP intoxication) | reduction in dopamine content in each striatum (striatum of MPTP mice; MPTP intoxication, 4 x 20 mg/kg i.p.) | loss of TH-expressing neurons in the SNpc compared to saline-injected mice (TH-ir neurons in SNpc; MPTP administration) [%] | loss of TH-expressing neurons in the striatum compared to saline-injected mice [1] [%] | spontaneous locomotor activity (MPTP mice; peripheral L-dopa 50 mg/kg/day) | spontaneous locomotor activity (MPTP mice; peripheral L-dopa 25 and 100 mg/day) | dopaminergic neurotransmission in striatum (striatum of MPTP mice; peripheral L-dopa 25 mg/day) | serotonin and noradrenalin in both striatum (striatum of MPTP mice; peripheral L-dopa 25 mg/day) | dopamine and metabolites in both striatum (striatum of MPTP mice; [2]) | serotonin and noradrenalin content (striatum of MPTP mice; [2]) | effect on TH-ir neurons in SNpc (TH-ir neurons in SNpc; L-dopa treatment, 7 days)
1 |  | CN1CC=C(c2ccccc2)CC1 [MPTP, 1-methyl-4-phenyl-1,2,3,6-tetrahydropyridine] | 70-80% | 20-50% | 60-70% | 35-50% | 40-40% | 85-90% | 44.3 | 38.2 |  |  |  |  |  |  | 
2 | abnormal behaviors such as dyskinesia | N[C@@H](Cc1ccc(O)c(O)c1)C(=O)O [L-dopa, L-3,4-dihydroxyphenylalanine] |  |  |  |  |  |  |  |  | restored | no effect | no effect on dopaminergic neurotransmission | increase in serotonin and noradrenalin in both striatum | significant increase in dopamine and metabolites in both striatum | no supplemental effect on serotonin and noradrenalin content | no significant effect
